Test results taken from article PMC5218480 (PLoS ONE, 2017).

Test system: MV-4-11 cells
Experiment: Gene expression microarray analysis (Affymetrix PrimeView) and GSEA
Type: cell-based, human
Design: RFU PODN (11730768_x_at) / Fold change /veh PODN (11730768_x_at) / RFU LINC00158 (11744669_a_at) / Fold change /veh LINC00158 (11744669_a_at) / RFU DUSP10 (11751237_a_at) / Fold change /veh DUSP10 (11751237_a_at) / RFU ID3 (11757404_x_at) / Fold change /veh ID3 (11757404_x_at) / RFU PLEKHG5 (11737974_s_at) / Fold change /veh PLEKHG5 (11737974_s_at) / RFU LRRC4B (11730491_at) / Fold change /veh LRRC4B (11730491_at) / RFU GIMAP4 (11747438_a_at) / Fold change /veh GIMAP4 (11747438_a_at) / RFU KRT8 (11758183_x_at) / Fold change /veh KRT8 (11758183_x_at) / RFU CNN1 (11734310_a_at) / Fold change /veh CNN1 (11734310_a_at) / RFU VPS37D (11726825_at) / Fold change /veh VPS37D (11726825_at) / RFU C10orf10 (11716522_x_at) / Fold change /veh C10orf10 (11716522_x_at) / RFU KIR2DL2 /// KIR2DL4 /// KIR2DL5A /// KIR2DL5B /// KIR2DS1 /// KIR2DS2 /// KIR2DS3 /// KIR2DS4 /// KIR3DL3 /// KIR3DL3 /// KIR3DS1 (11738374_at) / Fold change /veh KIR2DL2 /// KIR2DL4 /// KIR2DL5A /// KIR2DL5B /// KIR2DS1 /// KIR2DS2 /// KIR2DS3 /// KIR2DS4 /// KIR3DL3 /// KIR3DL3 /// KIR3DS1 (11738374_at) / RFU C1QL1 (11718748_at) / Fold change /veh C1QL1 (11718748_at) / RFU TMPRSS4 (11747572_a_at) / Fold change /veh TMPRSS4 (11747572_a_at) / RFU HAMP (11756126_x_at) / Fold change /veh HAMP (11756126_x_at) / RFU RNFT2 (11725882_a_at) / Fold change /veh RNFT2 (11725882_a_at) / RFU NR4A2 (11747474_a_at) / Fold change /veh NR4A2 (11747474_a_at) / RFU ABCC12 (11746883_a_at) / Fold change /veh ABCC12 (11746883_a_at) / RFU TMEM136 (11760407_x_at) / Fold change /veh TMEM136 (11760407_x_at) / RFU CLDN22 /// WWC2 (11732394_at) / Fold change /veh CLDN22 /// WWC2 (11732394_at) / RFU HLA-DPB1 (11760878_x_at) / Fold change /veh HLA-DPB1 (11760878_x_at) / RFU SPINT1 (11716480_a_at) / Fold change /veh SPINT1 (11716480_a_at) / RFU GAP43 (11754022_s_at) / Fold change /veh GAP43 (11754022_s_at) / RFU A4GNT (11735810_at) / Fold change /veh A4GNT (11735810_at) / RFU PRB3 (11715151_x_at) / Fold change /veh PRB3 (11715151_x_at) / RFU TUBB4B (11761932_at) / Fold change /veh TUBB4B (11761932_at) / RFU CAPN14 (11732068_a_at) / Fold change /veh CAPN14 (11732068_a_at) / RFU TMCC2 (11721928_a_at) / Fold change /veh TMCC2 (11721928_a_at) / RFU IRGQ (11745062_a_at) / Fold change /veh IRGQ (11745062_a_at) / RFU FAM174B (11720279_a_at) / Fold change /veh FAM174B (11720279_a_at) / RFU TMPRSS4 (11748680_a_at) / Fold change /veh TMPRSS4 (11748680_a_at) / RFU FAM212B (11763350_a_at) / Fold change /veh FAM212B (11763350_a_at) / RFU PLEKHG5 (11743358_a_at) / Fold change /veh PLEKHG5 (11743358_a_at) / RFU ZSCAN30 (11745921_a_at) / Fold change /veh ZSCAN30 (11745921_a_at) / RFU CMKLR1 (11741424_a_at) / Fold change /veh CMKLR1 (11741424_a_at) / RFU LOC101060620 /// MAPK8IP1 (11723275_at) / Fold change /veh LOC101060620 /// MAPK8IP1 (11723275_at) / RFU SPTSSB (11747773_x_at) / Fold change /veh SPTSSB (11747773_x_at) / RFU PRSS12 (11739890_at) / Fold change /veh PRSS12 (11739890_at) / RFU BIN1 (11741810_x_at) / Fold change /veh BIN1 (11741810_x_at) / RFU WNT11 (11732464_a_at) / Fold change /veh WNT11 (11732464_a_at) / RFU C10orf10 (11716521_a_at) / Fold change /veh C10orf10 (11716521_a_at) / RFU C5orf56 (11738089_at) / Fold change /veh C5orf56 (11738089_at) / RFU CYB561 (11721691_x_at) / Fold change /veh CYB561 (11721691_x_at) / RFU ANKRD19P (11752326_a_at) / Fold change /veh ANKRD19P (11752326_a_at) / RFU OR2T12 /// OR2T33 /// OR2T8 (11738714_s_at) / Fold change /veh OR2T12 /// OR2T33 /// OR2T8 (11738714_s_at) / RFU VCAN (11748164_a_at) / Fold change /veh VCAN (11748164_a_at) / RFU JSRP1 (11732532_at) / Fold change /veh JSRP1 (11732532_at) / RFU KRTAP10-11 (11738290_x_at) / Fold change /veh KRTAP10-11 (11738290_x_at) / RFU MYO3A (11730013_a_at) / Fold change /veh MYO3A (11730013_a_at) / RFU EBF3 (11725865_a_at) / Fold change /veh EBF3 (11725865_a_at) / RFU CAMK2N1 (11719241_x_at) / Fold change /veh CAMK2N1 (11719241_x_at) / RFU C5orf56 (11738088_a_at) / Fold change /veh C5orf56 (11738088_a_at) / RFU OLFML3 (11715873_a_at) / Fold change /veh OLFML3 (11715873_a_at) / RFU LOC100653217 /// NTM (11731650_a_at) / Fold change /veh LOC100653217 /// NTM (11731650_a_at) / RFU MAPK11 (11762145_a_at) / Fold change /veh MAPK11 (11762145_a_at) / RFU FIZ1 (11724087_x_at) / Fold change /veh FIZ1 (11724087_x_at) / RFU OASL (11726364_x_at) / Fold change /veh OASL (11726364_x_at) / RFU SOX15 (11748057_x_at) / Fold change /veh SOX15 (11748057_x_at) / RFU CD79A (11719716_a_at) / Fold change /veh CD79A (11719716_a_at) / RFU HIST1H1D (11736915_at) / Fold change /veh HIST1H1D (11736915_at) / RFU CASKIN2 (11723855_a_at) / Fold change /veh CASKIN2 (11723855_a_at) / RFU LOC730098 (11760151_x_at) / Fold change /veh LOC730098 (11760151_x_at) / RFU OR4N2 (11742367_at) / Fold change /veh OR4N2 (11742367_at) / RFU PRRT2 (11749266_a_at) / Fold change /veh PRRT2 (11749266_a_at) / RFU SNX32 (11753110_a_at) / Fold change /veh SNX32 (11753110_a_at) / RFU CDHR5 (11726645_a_at) / Fold change /veh CDHR5 (11726645_a_at) / RFU RCAN1 (11760418_a_at) / Fold change /veh RCAN1 (11760418_a_at) / RFU FAM167A (11723789_a_at) / Fold change /veh FAM167A (11723789_a_at) / RFU FAM26E (11764081_at) / Fold change /veh FAM26E (11764081_at) / RFU ISYNA1 (11749810_s_at) / Fold change /veh ISYNA1 (11749810_s_at) / RFU ACY1 (11761880_at) / Fold change /veh ACY1 (11761880_at) / RFU 11764098_at / Fold change /veh 11764098_at / RFU SAMD14 (11745864_x_at) / Fold change /veh SAMD14 (11745864_x_at) / RFU NPB (11741838_a_at) / Fold change /veh NPB (11741838_a_at) / RFU TMPRSS6 (11731388_a_at) / Fold change /veh TMPRSS6 (11731388_a_at) / RFU KRTAP10-2 (11738614_at) / Fold change /veh KRTAP10-2 (11738614_at) / RFU ARHGAP8 /// PRR5-ARHGAP8 (11727945_x_at) / Fold change /veh ARHGAP8 /// PRR5-ARHGAP8 (11727945_x_at) / RFU KRTAP5-7 /// NADSYN1 (11734609_at) / Fold change /veh KRTAP5-7 /// NADSYN1 (11734609_at) / RFU RASL12 (11751679_a_at) / Fold change /veh RASL12 (11751679_a_at) / RFU CDKN2B (11736163_a_at) / Fold change /veh CDKN2B (11736163_a_at) / RFU PRF1 (11729649_at) / Fold change /veh PRF1 (11729649_at) / RFU, ZNF638 /// ZNF638-IT1 / Fold change vs veh, ZNF638 /// ZNF638-IT1 / RFU, PANK3 / Fold change vs veh, PANK3 / RFU, SH3YL1 / Fold change vs veh, SH3YL1 / RFU, ZEB2 / Fold change vs veh, ZEB2 / RFU, NRIP1 / Fold change vs veh, NRIP1 / RFU, PTTG1IP / Fold change vs veh, PTTG1IP / RFU, CAPN2 / Fold change vs veh, CAPN2 / RFU, MED14 / Fold change vs veh, MED14 / RFU, SNORA58 / Fold change vs veh, SNORA58 / RFU, C1orf63 / Fold change vs veh, C1orf63 / RFU, LRRFIP1 / Fold change vs veh, LRRFIP1 / RFU, NDUFAF7 / Fold change vs veh, NDUFAF7 / RFU, SLC12A2 / Fold change vs veh, SLC12A2 / RFU, IBTK / Fold change vs veh, IBTK / RFU, ESF1 / Fold change vs veh, ESF1 / Fold change vs veh, TMEM50B / RFU, TAOK1 / Fold change vs veh, TAOK1 / RFU, ACBD3 / Fold change vs veh, ACBD3 / RFU, TMA16 / Fold change vs veh, TMA16 / RFU, RWDD3 / Fold change vs veh, RWDD3 / RFU, BCAT1 / Fold change vs veh, BCAT1 / RFU, EDEM3 / Fold change vs veh, EDEM3 / RFU, TMEM33 / Fold change vs veh, TMEM33 / RFU, WDR75 / Fold change vs veh, WDR75 / RFU, AHCTF1 / Fold change vs veh, AHCTF1 / RFU, TFRC / Fold change vs veh, TFRC / RFU, ZDHHC17 / Fold change vs veh, ZDHHC17 / RFU, NOM1 / Fold change vs veh, NOM1 / RFU, ARL8B / Fold change vs veh, ARL8B / RFU, ZBTB11 / Fold change vs veh, ZBTB11 / RFU, TAMM41 / Fold change vs veh, TAMM41 / RFU, KIAA1704 /// LOC100996395 / Fold change vs veh, KIAA1704 /// LOC100996395 / RFU, ING1 / Fold change vs veh, ING1 / RFU, TRMT61B / Fold change vs veh, TRMT61B / RFU, FUBP3 / Fold change vs veh, FUBP3 / RFU, TP53 / Fold change vs veh, TP53 / RFU, TNKS2 / Fold change vs veh, TNKS2 / RFU, ZFP14 / Fold change vs veh, ZFP14 / RFU, ACTR2 / Fold change vs veh, ACTR2 / RFU, PPP3R1 / Fold change vs veh, PPP3R1 / RFU, PIK3R1 / Fold change vs veh, PIK3R1 / RFU, HNRNPA1 / Fold change vs veh, HNRNPA1 / RFU, RNF170 / Fold change vs veh, RNF170 / RFU, ZNF28 / Fold change vs veh, ZNF28 / RFU, RNGTT / Fold change vs veh, RNGTT / RFU, OGT / Fold change vs veh, OGT / RFU, BRD1 / Fold change vs veh, BRD1 / RFU, MARS / Fold change vs veh, MARS / RFU, ZNF655 / Fold change vs veh, ZNF655 / RFU, FAHD1 / Fold change vs veh, FAHD1 / RFU, BDP1 / Fold change vs veh, BDP1 / RFU, LRRCC1 / Fold change vs veh, LRRCC1 / RFU, ARID1A / Fold change vs veh, ARID1A / RFU, ZNF146 / Fold change vs veh, ZNF146 / RFU, ZNF330 / Fold change vs veh, ZNF330 / RFU, GPN3 / Fold change vs veh, GPN3 / RFU, C9orf123 / Fold change vs veh, C9orf123 / RFU, N4BP2L2 / Fold change vs veh, N4BP2L2 / RFU, ARFIP1 / Fold change vs veh, ARFIP1 / RFU, FAM179B / Fold change vs veh, FAM179B / RFU, BCL10 / Fold change vs veh, BCL10 / RFU, UHRF1BP1L / Fold change vs veh, UHRF1BP1L / RFU, BET1 / Fold change vs veh, BET1 / RFU, CNOT2 / Fold change vs veh, CNOT2 / RFU, ZNF268 / Fold change vs veh, ZNF268 / Fold change vs veh, ZNF507 / RFU, DGCR2 / Fold change vs veh, DGCR2 / RFU, WDSUB1 / Fold change vs veh, WDSUB1 / Fold change vs veh, HSP90B1 /// MIR3652 / RFU, ADSS / Fold change vs veh, ADSS / RFU, GK / Fold change vs veh, GK / RFU, ZNF148 / Fold change vs veh, ZNF148 / RFU, TAF9 / Fold change vs veh, TAF9 / RFU, SLC1A5 / Fold change vs veh, SLC1A5 / RFU, SLMO2 / Fold change vs veh, SLMO2 / RFU, ABCC4 / Fold change vs veh, ABCC4 / RFU, LOC101060439 /// RAP1B / Fold change vs veh, LOC101060439 /// RAP1B / RFU, RFX7 / Fold change vs veh, RFX7 / RFU, GTPBP10 / Fold change vs veh, GTPBP10 / RFU, CNEP1R1 / Fold change vs veh, CNEP1R1 / RFU, BIVM-ERCC5 /// ERCC5 / Fold change vs veh, BIVM-ERCC5 /// ERCC5 / RFU, ILF3 / Fold change vs veh, ILF3 / RFU 11762660_at / Fold change /veh 11762660_at / RFU VCAN (11757783_s_at) / Fold change /veh VCAN (11757783_s_at) / RFU DDX43 (11728927_at) / Fold change /veh DDX43 (11728927_at) / RFU KRT8 (11758188_x_at) / Fold change /veh KRT8 (11758188_x_at) / RFU NKD1 (11759106_at) / Fold change /veh NKD1 (11759106_at) / RFU SRD5A1 (11742802_a_at) / Fold change /veh SRD5A1 (11742802_a_at) / RFU TPSAB1 /// TPSB2 (11721975_s_at) / Fold change /veh TPSAB1 /// TPSB2 (11721975_s_at) / RFU GSTM3 (11746129_a_at) / Fold change /veh GSTM3 (11746129_a_at) / RFU IL23R (11737362_x_at) / Fold change /veh IL23R (11737362_x_at) / RFU TMEM51 (11727254_a_at) / Fold change /veh TMEM51 (11727254_a_at) / RFU PIWIL2 (11732686_x_at) / Fold change /veh PIWIL2 (11732686_x_at) / RFU ORM1 (11744905_x_at) / Fold change /veh ORM1 (11744905_x_at) / RFU CCDC152 (11743942_at) / Fold change /veh CCDC152 (11743942_at) / RFU ECM1 (11717891_a_at) / Fold change /veh ECM1 (11717891_a_at) / RFU IL23R (11748794_a_at) / Fold change /veh IL23R (11748794_a_at) / RFU TNFAIP8L3 (11732012_x_at) / Fold change /veh TNFAIP8L3 (11732012_x_at) / RFU MBOAT4 (11741988_at) / Fold change /veh MBOAT4 (11741988_at) / RFU 11764193_at / Fold change /veh 11764193_at / RFU TMEM53 (11763286_at) / Fold change /veh TMEM53 (11763286_at) / RFU MAGEB2 (11727129_at) / Fold change /veh MAGEB2 (11727129_at) / RFU TMEM200A (11744735_a_at) / Fold change /veh TMEM200A (11744735_a_at) / RFU CCDC152 (11751479_a_at) / Fold change /veh CCDC152 (11751479_a_at) / RFU FAM211A (11726209_a_at) / Fold change /veh FAM211A (11726209_a_at) / RFU RGS16 (11746705_a_at) / Fold change /veh RGS16 (11746705_a_at) / RFU VCAN (11755009_s_at) / Fold change /veh VCAN (11755009_s_at) / RFU RHOB (11743442_s_at) / Fold change /veh RHOB (11743442_s_at) / RFU RGS16 (11720943_a_at) / Fold change /veh RGS16 (11720943_a_at) / RFU RGS16 (11720944_at) / Fold change /veh RGS16 (11720944_at) / RFU, VPS4B / Fold change vs veh, VPS4B / RFU, CREB1 / Fold change vs veh, CREB1 / RFU, DNAJC13 / Fold change vs veh, DNAJC13 / RFU, GNAQ / Fold change vs veh, GNAQ / RFU, CDK5R1 / Fold change vs veh, CDK5R1 / RFU, ZRANB3 / Fold change vs veh, ZRANB3 / RFU, CUL4A / Fold change vs veh, CUL4A / RFU, CCNY / Fold change vs veh, CCNY / RFU, UFL1 / Fold change vs veh, UFL1 / RFU, COG3 / Fold change vs veh, COG3 / RFU, DIAPH2 / Fold change vs veh, DIAPH2 / RFU, SKA2 / Fold change vs veh, SKA2 / RFU, AFF3 / Fold change vs veh, AFF3 / RFU, LMF1 / Fold change vs veh, LMF1 / RFU, IPO11 / Fold change vs veh, IPO11 / RFU, DFFB / Fold change vs veh, DFFB / RFU, FOXP1 / Fold change vs veh, FOXP1 / RFU, CARD8 / Fold change vs veh, CARD8 / RFU, STRN3 / Fold change vs veh, STRN3 / RFU, ADK / Fold change vs veh, ADK / RFU, RASSF2 / Fold change vs veh, RASSF2 / RFU, WIPF1 / Fold change vs veh, WIPF1 / RFU, LARP1B / Fold change vs veh, LARP1B / RFU, RASA1 / Fold change vs veh, RASA1 / RFU, RB1 / Fold change vs veh, RB1 / RFU, PPFIA1 / Fold change vs veh, PPFIA1 / RFU, MAT2A / Fold change vs veh, MAT2A / RFU, CCT5 / Fold change vs veh, CCT5 / RFU, WDR92 / Fold change vs veh, WDR92 / RFU, CUX1 / Fold change vs veh, CUX1 / RFU, TTC7A / Fold change vs veh, TTC7A / RFU, TMEM135 / Fold change vs veh, TMEM135 / RFU, DEPTOR / Fold change vs veh, DEPTOR / RFU, CPM / Fold change vs veh, CPM / RFU, DNAJB6 / Fold change vs veh, DNAJB6 / RFU, CACNA2D3 / Fold change vs veh, CACNA2D3 / RFU, DTX4 / Fold change vs veh, DTX4 / RFU, TFCP2 / Fold change vs veh, TFCP2 / RFU, GMCL1 /// GMCL1P1 / Fold change vs veh, GMCL1 /// GMCL1P1 / RFU, AEBP2 / Fold change vs veh, AEBP2 / RFU, SNHG1 /// SNORD22 /// SNORD25 /// SNORD26 /// SNORD27 /// SNORD28 /// SNORD29 /// SNORD31 / Fold change vs veh, SNHG1 /// SNORD22 /// SNORD25 /// SNORD26 /// SNORD27 /// SNORD28 /// SNORD29 /// SNORD31 / Fold change (Aza/veh), C12orf56 (ProbeSet 11735607_a_at) / Fold change (ACY-1035/veh), C12orf56 (ProbeSet 11735607_a_at) / Fold change (Aza/veh), FGFR1OP (ProbeSet 11751329_s_at) / Fold change (ACY-1035/veh), FGFR1OP (ProbeSet 11751329_s_at) / Fold change (Aza/veh), VPS36 (ProbeSet 11739960_a_at) / Fold change (ACY-1035/veh), VPS36 (ProbeSet 11739960_a_at) / RFU SYPL1 (11715823_x_at) / Fold change /veh SYPL1 (11715823_x_at) / RFU IGFBP7 (11715501_s_at) / Fold change /veh IGFBP7 (11715501_s_at) / RFU REEP3 (11722064_at) / Fold change /veh REEP3 (11722064_at) / RFU IGLL1 (11728026_x_at) / Fold change /veh IGLL1 (11728026_x_at): dose or concentration left out as unconfirmed
Details: MV-4-11 cells, 48 hours

Nc1ncn([C@@H]2O[C@H](CO)[C@@H](O)[C@H]2O)c(=O)n1 [azacitidine]
Fold change /veh RHOB (11743442_s_at): 1.27
